Assay results published in US12202832B2, “Heterocyclic compounds having a calcium-sensing receptor antagonistic activity” (TAKEDA PHARMACEUTICAL COMPANY LIMITED, priority 2017, dated 2025).

Columns and labels:
[1] = target: T1, human CaSR (Homo sapiens, UniProt P41180); assay: Human CaSR antagonist activity (NFAT-Luciferase reporter in CHO cells); format: cell-based; conditions: CHO, CaCl2 final 1.3 mM, 100% = reference antagonist at 10 μM, read-out: Inhibition rate (%) at 3.3 μM
T1 construct: expressed in transfected cells; host or cells: CHO cells
T1 sequence (P41180 20-1078): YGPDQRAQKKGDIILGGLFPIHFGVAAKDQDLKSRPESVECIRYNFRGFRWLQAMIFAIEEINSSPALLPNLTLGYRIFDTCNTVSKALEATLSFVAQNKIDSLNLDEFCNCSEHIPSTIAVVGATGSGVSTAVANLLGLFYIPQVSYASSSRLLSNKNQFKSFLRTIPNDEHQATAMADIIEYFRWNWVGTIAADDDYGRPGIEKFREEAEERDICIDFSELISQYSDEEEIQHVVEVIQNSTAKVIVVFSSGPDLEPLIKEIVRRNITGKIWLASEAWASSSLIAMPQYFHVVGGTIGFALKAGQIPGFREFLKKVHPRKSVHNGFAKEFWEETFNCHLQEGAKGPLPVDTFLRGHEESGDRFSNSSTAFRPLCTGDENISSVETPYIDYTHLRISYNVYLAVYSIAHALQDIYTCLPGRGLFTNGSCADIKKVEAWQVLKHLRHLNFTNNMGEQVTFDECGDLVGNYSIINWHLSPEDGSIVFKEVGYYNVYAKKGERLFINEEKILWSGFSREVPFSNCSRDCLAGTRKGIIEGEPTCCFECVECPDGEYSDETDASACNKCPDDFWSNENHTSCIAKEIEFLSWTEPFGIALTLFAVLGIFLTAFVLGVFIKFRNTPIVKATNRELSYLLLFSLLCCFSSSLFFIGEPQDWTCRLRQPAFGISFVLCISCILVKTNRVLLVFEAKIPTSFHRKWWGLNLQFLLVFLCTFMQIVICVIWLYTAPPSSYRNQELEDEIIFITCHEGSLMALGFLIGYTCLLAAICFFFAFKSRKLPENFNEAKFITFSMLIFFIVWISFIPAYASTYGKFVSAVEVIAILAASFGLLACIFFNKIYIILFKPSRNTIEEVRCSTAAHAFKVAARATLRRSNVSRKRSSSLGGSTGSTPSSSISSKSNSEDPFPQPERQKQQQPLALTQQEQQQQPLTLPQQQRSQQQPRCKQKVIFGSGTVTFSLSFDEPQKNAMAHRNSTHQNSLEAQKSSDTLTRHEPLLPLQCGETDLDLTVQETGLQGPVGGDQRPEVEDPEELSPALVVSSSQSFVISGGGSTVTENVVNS
Experimental: CaSR antagonist activity measurement was performed using Bright-Glo Luciferase assay system (Promega Corporation). CHO cells in which human CaSR and NFAT-Luciferase reporter gene were forcibly expressed were suspended in MEM alpha (Wako Pure Chemical Industries, Ltd.) containing 10% dialyzed serum (HyClone). The cells in suspension was seeded in 384-well white plate (Corning) at 10,000/20 μL/well, and cultured in an incubator of 37° C., 5% CO2 for one day. A diluent of Test compound was prepared with assay buffer (MEM alpha containing 10 mM HEPES (Life Technologies) and 10% dialysis serum). The diluent was added to the plate at 5 μL/well and allowed to stand at 37° C. for 10 minutes. Further, a diluent of 7.8 mM CaCl2 prepared with assay buffer (final concentration 1.3 mM) was added at 5 μl/well and allowed to stand in an incubator of 37° C., 5% CO2 for 2 hours. Bright-Glo reagents (Promega Corporation) were added at 10 μL/well, and the obtained mixture was stirred for 5 minutes, and then luminescence intensity was measured using Multi-label reader Envision (PerkinElmer, Inc.). The activity (%) of the test compound was calculated with the definitions in which the luminescence intensity when DMSO is added in place of the test compound is defined as 0% inhibition; and the luminescence intensity when (5R)—N-(1-ethyl-1-(4-ethylphenyl)propyl)-2,7,7-trimethyl-5-phenyl-4,5,6,7-tetrahydropyrazolo[1,5-a] Pyrimidine-3-carboxamide at final concentration of 10 μM is added is defined as 100% inhibition.

[2] = system: CSQ-Tg mice; assay: Effect on survival rate of heart failure animal model; format: in vivo; conditions: oral QD 68 days, control: candesartan cilexetil mono-administration
Experimental: FIG. 1 is a graph showing a result of Test Example 5 “Effect of Compound of Example 1 on Survival Rate of Heart Failure Animal Model”, that is, survival rates of each of the mono-administration group of candesartan cilexetil, the co-administration group of candesartan cilexetil and the compound of Example 1 at 10 mg/kg bodyweight/day, and the co-administration group of candesartan cilexetil and the compound of Example 1 at 30 mg/kg bodyweight/day (log-rank test, the co-administration group of candesartan cilexetil and the compound of Example 1 at 10 mg/kg bodyweight/day (p<0.05), the co-administration group of candesartan cilexetil and the compound of Example 1 at 30 mg/kg bodyweight/day (p<0.01)).
In this Test Example, effect of Example 1 on survival rate was examined using heart failure animal models. The mice reported in Larry R. Jones et al., J. Clin. Invest. 101: 1385-1393, 1998 were obtained from the University of Pennsylvania and bred in-house, which were cardiac-specific transgenic mice of Calsequestrin (CSQ) (CSQ-Tg mice) as the heart failure animal models. In the study, female mice were used, and dosing was started from the age of 5 weeks. The animals were fed with chow (CE-2, CLEA Japan, Inc.) and tap water under the condition of room temperature of 20 to 26° C., humidity of 40 to 70%, and lighting time of 12 hours/day (7:00 to 19:00). […]

With `CCc1ccc([C@@](CC)(NC(=O)c2c(C)nn3c2N[C@@H](c2ccccc2)CC3(C)C)C(=O)N[C@@H](C)C(N)=O)cc1` [Example 1, (5R)-N-((2R)-1-(((2S)-1-Amino-1-oxopropan-2-yl)amino)-2-(4-ethylphenyl)-1-oxobutan-2-yl)-2,7,7-trimethyl-5-phenyl-4,5,6,7-tetrahydropyrazolo[1,5-a]pyrimidine-3-carboxamide] the inhibition at 3.3 µM [1] was 103%, the “Survival rate, log-rank test p” value ([2]; 10 mg/kg bodyweight/day co-administered with candesartan cilexetil (1 mg/kg bodyweight/day)) was under 0.05 and the “Survival rate, log-rank test p” value ([2]; 30 mg/kg bodyweight/day co-administered with candesartan cilexetil (1 mg/kg bodyweight/day)) was under 0.01.
